Measurements: PMC10610379, “Epidrugs as Promising Tools to Eliminate Plasmodium falciparum Artemisinin-Resistant and Quiescent Parasites” (Pharmaceutics, 2023)
“And” between values parts separate entries of the source, which are not always exact repeats. Identical values can stand only once. Like-named read-outs stand apart in the source and are kept apart here.

Tests used:
[1] = tested on: Plasmodium falciparum F32-TEM (artemisinin-sensitive twin line); experiment: Standard chemosensitivity assay (SYBR Green I), F32-TEM; format: cell-based; conditions: Plasmodium falciparum, read-out: Antiplasmodial Activity: IC50, F32-TEM
Experimental: (§1) They differ by eight mutations in seven genes (PF3D7_0110400, PF3D7_1343700, PF3D7_0213400, PF3D7_1115700, PF3D7_1302100, PF3D7_1459600, PF3D7_1464500) among them the M476I mutation on the kelch13 gene. F32-ART and F32-TEM strains have RSA^0–3 h values up to 12% and less than 0.1%, respectively. […] Both strains were cultured, in the same conditions, according to the Trager and Jensen protocol with modifications. Briefly, parasites were cultivated in RPMI-1640 medium (Biowest) at 2% hematocrit in human red blood cells and 5% human serum (EFS, French Blood Bank) under 5% CO2 in a humid atmosphere at 37 °C.
(§2) The antimalarial activities of the compounds were evaluated on both strains. […] Antimalarial activities were determined with the SYBR Green I method. Each drug concentration was tested in triplicate. The parasites were incubated with the drugs for 48 h. Plates were read on a BioTek FLX800 Microplate Fluorescence Reader (Bio-Tek instruments, Winooski, VT, USA) (λexcitation = 485 nm, λemission = 528 nm). Control parasite culture (i.e., RPMI with 0.5% DMSO) was referred to as 100% growth. IC50 and IC90 values were determined using GraphPad Prism version 7.05 (GraphPad Software, San Diego, CA, USA). Results were the mean of 3 independent experiments. When it is relevant, statistical significance between results obtained with both parasite strains was determined by a Mann–Whitney test using GraphPad Prism version 7.05.

[2] = tested on: Plasmodium falciparum F32-ART (artemisinin-resistant strain); experiment: Standard chemosensitivity assay (SYBR Green I), F32-ART; format: cell-based; conditions: for IC50: Plasmodium falciparum, read-out: Antiplasmodial Activity: IC50, F32-ART; for Selectivity Index CC50/IC50: ratio cytotoxicity (mammalian cell type of the CC50)/antiplasmodial activity on F32-ART
Experimental: as §1, §2

[3] = Cytotoxicity evaluation by MTT assay; format: cell-based; conditions: monkey, Vero cells, * mean of 2 experiments
Experimental: The cytotoxicity of all newly synthesized compounds was evaluated on the Vero cell lines (isolated from monkey kidney cells, gift from the Faculty of Pharmacy, Toulouse, France) by MTT assay according to Mosmann with slight modifications. Briefly, cells in MEM medium supplemented with 10% fetal calf serum, 2 mM L-glutamine, antibiotics (100 U/mL penicillin and 100 µg/mL streptomycin), and NEAA 1X, were seeded in 96-well plates. After a 24-h incubation at 37 °C and 5% CO2 in a humidified atmosphere, compounds were added with concentrations ranging from 5 nM to 50 μM in duplicate. […] The security index was calculated as the ratio of cytotoxicity/antiplasmodial activity.

H3K4me3 = experiment: Immunoblotting, histone mark abundance in F32-ART parasites; format: cell-based, Plasmodium falciparum; conditions: 700nM DHA alone, F32-ART ring stage; 3 replicates (Fig 3D)
Experimental: (§3) Abundance of methylated and acetylated histone was determined in parasite cultures in different conditions: “not-treated”, “DHA 24 h”, “DHA 6 h/DHA 24 h” and “DHA 6 h/DHA + compound to be tested 24 h”. At the end of the treatments, parasite cultures were washed in RPMI-1640 and then twice in PBS 1× before red blood cell lysis with 0.075% saponin (Sigma-Aldrich) in PBS. Parasite ghosts were washed 3 times in PBS before incubating the ghosts with E1A lysis buffer (50 mM Hepes pH 7.5; 250 mM NaCl; 5 mM EDTA; 0.1% Triton X-100, 1 mM DTT, 0.2 mM PMSF supplemented with complete Mini EDTA-free protease inhibitor cocktail (Roche®, Basel, Switzerland)) for 15 min. Ghosts were then sonicated for 3 × 15s ON/OFF cycles to shear parasite membranes. Debris were pelleted by centrifuging for 15 min at 13,800× g and 4 °C, and supernatants (containing parasitic proteins) were then collected. Protein concentrations were determined using BCA assay (Bio-Rad, Hercules, CA, USA) according to the manufacturer’s instructions. For each sample, 10 µg of proteins were mixed with 4× sample buffer (10 mL 50% Glycerol, 5 mL 0.5 M Tris HCl pH 6.8, 4 mL 20% SDS, 0.02% Bromophenol blue for a total solution volume of 20 mL) and 100 mM DTT and then separated on 15% SDS-PAGE gels in Laemmli running buffer. Gels were then wet-transferred O/N at 20 V onto PVDF membranes. Membranes were blocked in TBST for 1 h at room temperature. Bottom parts were then probed with histone antibodies while upper parts were probed with PFALDOLASE antibody (Abcam, ab38905, Cambridge, UK) at 1:20,000 dilution. The following primary antibodies were used: anti-H3K4me1 (Abcam, ab8895); anti-H3K4me2 (Abcam, ab35356); anti-H3K9me2 (Abcam, ab1220); anti-H3K9me3 (Millipore, 07-442, Burlington, MA, USA); anti-tetra-acetyl H4 (Millipore, 06-866); anti-H4K8Ac (Millipore, 07-328); anti-H4K20me3 (Abcam, ab9053); anti-H3K4me3 (Diagenode) and anti-H3K9Ac (Millipore, 07-352) at 1:10,000. The following secondary antibodies were used: anti-rabbit IgG-Peroxidase produced in goat (Sigma-Aldrich) or anti-mouse IgG-Peroxidase (Sigma-Aldrich); at 1:20,000 dilutions. Blots were developed using ECL Prime Western Blotting (GE Healthcare, Chicago, IL, USA) and read on a Chemidoc touch imaging software. Densitometry analysis was performed by using ImageLab software from Bio-Rad. To determine if variations in histone abundances were statistically significant, immunoblotting experiments were performed on 3 biological replicates and each run was performed twice.

H4K20me3 = experiment: as above; format: cell-based, Plasmodium falciparum; conditions: 700nM DHA alone, F32-ART ring stage; 3 replicates (Fig 3D)
Experimental: as §3

H4ac4 = experiment: as above; format: cell-based, Plasmodium falciparum; conditions: 700nM DHA alone, F32-ART ring stage; 3 replicates (Fig 3D)
Experimental: as §3

H3K4me1 = experiment: as above; format: cell-based, Plasmodium falciparum; conditions: 700nM DHA alone, F32-ART ring stage; 3 replicates (Fig 3D)
Experimental: as §3

H4K8ac = experiment: as above; format: cell-based, Plasmodium falciparum; conditions: 700nM DHA alone, F32-ART ring stage; 3 replicates (Fig 3D)
Experimental: as §3

H3K4me2 = experiment: as above; format: cell-based, Plasmodium falciparum; conditions: 700nM DHA alone, F32-ART ring stage; 3 replicates (Fig 3D)
Experimental: as §3

[4] = F32-TEM, 48 h incubation, SYBR Green I, mean ± SEM of 3 experiments (* mean of 2)
[5] = F32-ART, 48 h incubation, SYBR Green I, mean ± SEM of 3 experiments (* mean of 2)

Row | Compound | CC50 [3] | IC50 [1, 4] | IC50 [2, 5] | Selectivity Index CC50/IC50 [2] | further results
1 | CC1=NN(C2CCC(C(=O)O)CC2)C(=O)C1=Cc1ccc(-c2cc(C)c(C)cc2[N+](=O)[O-])o1 (centres unmarked) [C646] | – | – | – | – | IC50 ([1]; F32, 48 h): > 10 µM; IC50 ([2]; F32, 48 h): > 10 µM
2 | C[C@@H]1CC[C@H]2[C@@H](C)C(=O)O[C@@H]3O[C@@]4(C)CC[C@@H]1[C@]32OO4 [artemisinin, Artemisinin] | > 100 µM | 0.013 ± 0.003 µM | – | – | –
3 | COc1cccc(C2Oc3ccccc3C(=O)C2(Cl)[N+](=O)[O-])c1 (centres unmarked) [NFlav2018] | > 50 µM | > 10 µM | > 10 µM | – | –
4 | C[C@H]1[C@@H](O)O[C@@H]2O[C@@]3(C)CC[C@H]4[C@H](C)CC[C@@H]1[C@@]24OO3 [DHA, Dihydroartemisinin] | – | – | – | – | Fold change of H3K4me3 abundance, DHA vs DMSO (H3K4me3): 0.71 and 0.98 and 0.76; Fold change of H4K20me3 abundance, DHA vs DMSO (H4K20me3): increase and 1.51 and 1.65; Fold change of H4ac4 abundance, DHA vs DMSO (H4ac4): increased level and 2.04 and 2.38 and 1.70; Fold change of H3K4me1 abundance, DHA vs DMSO (H3K4me1): 1.02 and 1.53 and 1.51; Fold change of H4K8ac abundance, DHA vs DMSO (H4K8ac): increased level and 2.03 and 2.07 and 2.15; Fold change of H3K4me2 abundance, DHA vs DMSO (H3K4me2): 1.36 and 1.49 and 1.08
5 | O=C1c2ccccc2OC(c2ccccc2)C1(Br)[N+](=O)[O-] (centres unmarked) [MLo1502] | > 50 µM | > 10 µM | > 10 µM | – | –
6 | COc1ccc([N+](=O)[O-])c(C2Oc3ccccc3C(=O)C2(Cl)[N+](=O)[O-])c1 (centres unmarked) [Flv880] | > 50 µM | > 10 µM | > 10 µM | – | –
7 | O=C1c2ccccc2O[C@H](c2ccccc2)[C@]1(F)[N+](=O)[O-] (relative stereo) [MLo1401] | 20 µM | > 10 µM | > 10 µM | <2 | –
8 | Cc1sc2c(c1C)C(c1ccc(Cl)cc1)=N[C@@H](CC(=O)OC(C)(C)C)c1nnc(C)n1-2 [(+)-JQ-1] | 0.2 µM | > 10 µM | > 10 µM | <0.02 | –
9 | C[C@]1([N+](=O)[O-])C(=O)c2ccccc2O[C@@H]1c1ccccc1[N+](=O)[O-] (relative stereo) [MLo1302] | 6.5 µM | 8 µM | 7 µM | 0.9 | –
10 | O=C1c2ccccc2O[C@H](c2ccccc2[N+](=O)[O-])[C@@]1(Cl)[N+](=O)[O-] (relative stereo) [Flv69] | > 50 µM | > 10 µM | > 10 µM | – | –
11 | COc1ccc([N+](=O)[O-])c(C2Oc3ccccc3C(=O)C2(Br)[N+](=O)[O-])c1 (centres unmarked) [MLo1508] | 36 µM | > 10 µM | > 10 µM | <3.6 | –
12 | O=C1c2ccccc2O[C@H](c2ccccc2[N+](=O)[O-])[C@@]1(Br)[N+](=O)[O-] (relative stereo) [MLo1507] | 40 µM | > 10 µM | > 10 µM | <4 | –
13 | O=C1c2ccccc2O[C@H](c2ccccc2F)[C@@]1(Br)[N+](=O)[O-] (relative stereo) [MLo1509] | > 50 µM | > 10 µM | > 10 µM | – | –
14 | O=C1c2ccccc2OC(c2ccccc2)C1[N+](=O)[O-] (centres unmarked) [MLo1406] | > 50 µM | > 10 µM | > 10 µM | – | –
15 | Cc1sc2c(c1C)C(c1ccc(Cl)cc1)=N[C@@H](CC(=O)NCC13CC4CC(CC(C4)C1)C3)c1nnc(C)n1-2 [SHH-878-1] | 3 µM | 10 µM | 10 µM | 0.3 | –
16 | Cc1noc(C)c1-c1ccc2c(c1)nc(CCc1ccc(O)cc1)n2CCN1CCOCC1 [AKE-040] | 24 µM | > 10 µM | > 10 µM | <2.4 | –
